Calls of active or inactive are those of the source. The calls are words filed in the database; no cut-off is given here.
Assays:
U373-MAGI [1] = assay: Effect on dRGU-TP level in human U373-MAGI cells at 200 uM preincubated for 2 hrs followed by 5-aza-dC addition measured after 4 hrs by LC-MS/MS analysis; type: functional, cell-based
U373-MAGI [2] = assay: Reduction in dCTP level in human U373-MAGI cells at 50 uM preincubated for 2 hrs followed by 5-aza-dC addition measured after 4 hrs by LC-MS/MS analysis relative to 5-aza-dC; type: functional, cell-based
U373-MAGI [3] = assay: Increase in 5-aza-dCTP/dCTP ratio in human U373-MAGI cells at 200 uM preincubated for 2 hrs followed by 5-aza-C addition measured after 4 hrs by LC-MS/MS analysis relative to 5-aza-C; type: functional, cell-based
[4] = system: Human immunodeficiency virus 1; assay: Antiviral activity against VSV-G pseudotyped HIV-1 NL4-3 infected in human U373-MAGI cells assessed as increase in mutation frequency at 50 uM incubated for 4 hrs prior to infection measured at 72 hrs post infection by illumina sequencing method; type: functional
[5] = system: Human immunodeficiency virus 1; assay: (§1) Potentiation of 5-Aza-C-induced antiviral activity against VSV-G pseudotyped HIV-1 NL4-3 infected in human U373-MAGI cells assessed as increase in total mutation frequency at 50 uM incubated for 4 hrs preinfection followed by 5-Aza-C addition for 2 hrs preinfection and subsequent viral infection measured at 72 hrs post infection by illumina sequencing method relative to control; type: functional, organism-based
[6] = system: Human immunodeficiency virus 1; assay: as §1, with “5-Aza-dC-induced” for “5-Aza-C-induced”, “in” for “in total mutation”, “frequency of G to C transversion” for “frequency”; type: functional, organism-based
[7] = Reduction in dATP level in human U373-MAGI cells at 50 uM after 6 hrs by LC-MS/MS analysis; type: functional; set-up: scale not given: the % may be the effect or the level left
U373-MAGI [8] = assay: Effect on 5-aza-dCTP level in human U373-MAGI cells at 50 uM preincubated for 2 hrs followed by 5-aza-dC addition measured after 4 hrs by LC-MS/MS analysis; type: functional, cell-based
U373-MAGI [9] = assay: Reduction in dCTP level in human U373-MAGI cells at 200 uM preincubated for 2 hrs followed by 5-aza-C addition measured after 4 hrs by LC-MS/MS analysis relative to 5-aza-C; type: functional, cell-based
U373-MAGI [10] = assay: Increase in 5-aza-dCTP/dCTP ratio in human U373-MAGI cells at 200 uM preincubated for 2 hrs followed by 5-aza-dC addition measured after 4 hrs by LC-MS/MS analysis relative to 5-aza-dC; type: functional, cell-based
[11] = system: Human immunodeficiency virus 1; assay: Antiviral activity against VSV-G pseudotyped HIV-1 NL4-3 infected in human U373-MAGI cells assessed as reduction in U5-gag level at 50 uM measured at 12 to 72 hrs post infection by qPCR method; type: functional, organism-based
[12] = system: Human immunodeficiency virus 1; assay: Potentiation of 5-Aza-dC-induced antiviral activity against VSV-G pseudotyped HIV-1 NL4-3 infected in human U373-MAGI cells assessed as reduction in U5-gag level at 50 uM after 2 to 72 hrs by qPCR method; type: functional, organism-based
[13] = system: Human immunodeficiency virus 1; assay: Potentiation of 5-Aza-dC-induced antiviral activity against VSV-G pseudotyped HIV-1 NL4-3 infected in human U373-MAGI cells assessed as reduction in gag level at 50 uM after 2 to 72 hrs by qPCR method; type: functional, organism-based
[14] = system: Human immunodeficiency virus 1; assay: Antiviral activity against VSV-G pseudotyped HIV-1 NL4-3 infected in human U373-MAGI cells assessed as Vif mutation at 50 uM incubated for 4 hrs prior to infection measured at 72 hrs post infection by illumina sequencing method (reference value: 19.2%); type: functional
[15] = system: Human immunodeficiency virus 1; assay: Antiviral activity against VSV-G pseudotyped HIV-1 NL4-3 infected in human U373-MAGI cells assessed as increase in frequency of C to A transversion at 50 uM incubated for 4 hrs prior to infection measured at 72 hrs post infection by illumina sequencing method relative to control; type: functional
[16] = system: Human immunodeficiency virus 1; assay: Antiviral activity against VSV-G pseudotyped HIV-1 NL4-3 infected in human U373-MAGI cells assessed as increase in frequency of A to C transversion at 50 uM incubated for 4 hrs prior to infection measured at 72 hrs post infection by illumina sequencing method relative to control; type: functional
[17] = system: Human immunodeficiency virus 1; assay: Antiviral activity against VSV-G pseudotyped HIV-1 NL4-3 infected in human U373-MAGI cells assessed as increase in frequency of A to T transversion at 50 uM incubated for 4 hrs prior to infection measured at 72 hrs post infection by illumina sequencing method relative to control; type: functional
[18] = system: Human immunodeficiency virus 1; assay: Antiviral activity against VSV-G pseudotyped HIV-1 NL4-3 infected in human U373-MAGI cells assessed as increase in frequency of T to A transversion at 50 uM incubated for 4 hrs prior to infection measured at 72 hrs post infection by illumina sequencing method relative to control; type: functional
[19] = system: Human immunodeficiency virus 1; assay: Antiviral activity against VSV-G pseudotyped HIV-1 NL4-3 infected in human U373-MAGI cells assessed as increase in frequency of G to C transversion at 50 uM incubated for 4 hrs prior to infection measured at 72 hrs post infection by illumina sequencing method relative to control; type: functional
[20] = system: Human immunodeficiency virus 1; assay: Antiviral activity against VSV-G pseudotyped HIV-1 NL4-3 infected in human U373-MAGI cells assessed as increase in frequency of T to G transversion at 50 uM incubated for 4 hrs prior to infection measured at 72 hrs post infection by illumina sequencing method relative to control; type: functional
[21] = system: Human immunodeficiency virus 1; assay: Antiviral activity against VSV-G pseudotyped HIV-1 NL4-3 infected in human U373-MAGI cells assessed as increase in frequency of […] transversion at 50 uM incubated for 4 hrs prior to infection measured at 72 hrs post infection by illumina sequencing method relative to control; type: functional
[22] = system: Human immunodeficiency virus 1; assay: as §1, with “Env” for “increase in total”, “mutation” for “mutation frequency”, “(reference value: 21.4%)” for “relative to control”; type: functional
[23] = system: Human immunodeficiency virus 1; assay: as §1, with “Nef” for “increase in total”, “mutation” for “mutation frequency”, “(reference value: 22.6%)” for “relative to control”; type: functional
[24] = Cytotoxicity against human U373-MAGI cells at 50 uM measured at 72 hrs by Celltiter-Glo luminescent cell viability assay; type: cell-based
[25] = system: Human immunodeficiency virus 1; assay: Antiviral activity against VSV-G pseudotyped HIV-1 NL4-3 infected in human U373-MAGI cells assessed as reduction in gag level at 50 uM measured at 6 hrs post infection by qPCR method; type: functional, organism-based
[26] = system: Human immunodeficiency virus 1; assay: (§2) Potentiation of 5-Aza-C-induced antiviral activity against VSV-G pseudotyped HIV-1 NL4-3 infected in human U373-MAGI cells assessed as reduction in viral infectivity at 50 uM preincubated for 2 to 8 hrs followed by 5-Aza-C addition for 2 hrs and subsequent viral infection measured at 72 hrs post infection by flow cytometric analysis; type: functional, organism-based
[27] = system: Human immunodeficiency virus 1; assay: as §2, with “5-Aza-dC-induced” for “5-Aza-C-induced”, “25” for “50”, “2” for “2 to 8”, “5-Aza-dC” for “5-Aza-C”; type: functional, organism-based
U373-MAGI [28] = assay: Reduction in dTTP level in human U373-MAGI cells at 200 uM after 6 hrs by LC-MS/MS analysis; type: functional, cell-based
U373-MAGI [29] = assay: Reduction in 5-aza-dCTP level in human U373-MAGI cells at 200 uM preincubated for 2 hrs followed by 5-aza-C addition measured after 4 hrs by LC-MS/MS analysis; type: functional, cell-based

Q: Which results are given for `Oc1ccc(/C=C/c2cc(O)cc(O)c2)cc1` [RESVERATROL]?
A: Activity (U373-MAGI [1]): inactive; Activity (U373-MAGI [2]): Active; Activity (U373-MAGI [3]): inactive; fold change (FC) [4]: 1.5; Activity [5]: inactive; Activity [6]: inactive; Activity [7]: 30%; Activity (U373-MAGI [8]): inactive; Activity (U373-MAGI [9]): Active; Activity (U373-MAGI [10]): Active; Activity [11]: inactive; Activity [12]: Active; Activity [13]: Active; Activity [14]: 23.4%; fold change (FC) [15]: 1.3; fold change (FC) [16]: 1.8; fold change (FC) [17]: 1.8; fold change (FC) [18]: 1.8; fold change (FC) [19]: 2; fold change (FC) [20]: 3.2; fold change (FC) [21]: 2; Activity [22]: 22.8%; Activity [23]: 17.1%; Activity [24]: Non-toxic; Activity [25]: Active; Activity [26]: Active; Activity [27]: Active; Activity (U373-MAGI [28]): Active; Activity (U373-MAGI [29]): Active

Source: ChEMBL document CHEMBL3797079, “Synergistic reduction of HIV-1 infectivity by 5-azacytidine and inhibitors of ribonucleotide reductase” (Bioorg Med Chem, 2016)
